Test results: patent US20110092505A1, “ORGANIC COMPOUNDS” (priority 2008, published 2011)

Assays:
[1] = biological target: T1, protein kinase D1 (PKD1) (Homo sapiens, UniProt Q15139); experiment: PKD1 TR-FRET (LANCE) kinase assay; type: biochemical; conditions: full length wild-type enzyme, 20 μM ATP, syntide-2 substrate; read-out: Inhibitory Activity PKD1
T1 construct: This assay is performed with full length wild-type enzyme that is expressed and purified from Sf9 insect cells; made in house; host or cells: Sf9 insect cells
T1 sequence (Q15139 1-912): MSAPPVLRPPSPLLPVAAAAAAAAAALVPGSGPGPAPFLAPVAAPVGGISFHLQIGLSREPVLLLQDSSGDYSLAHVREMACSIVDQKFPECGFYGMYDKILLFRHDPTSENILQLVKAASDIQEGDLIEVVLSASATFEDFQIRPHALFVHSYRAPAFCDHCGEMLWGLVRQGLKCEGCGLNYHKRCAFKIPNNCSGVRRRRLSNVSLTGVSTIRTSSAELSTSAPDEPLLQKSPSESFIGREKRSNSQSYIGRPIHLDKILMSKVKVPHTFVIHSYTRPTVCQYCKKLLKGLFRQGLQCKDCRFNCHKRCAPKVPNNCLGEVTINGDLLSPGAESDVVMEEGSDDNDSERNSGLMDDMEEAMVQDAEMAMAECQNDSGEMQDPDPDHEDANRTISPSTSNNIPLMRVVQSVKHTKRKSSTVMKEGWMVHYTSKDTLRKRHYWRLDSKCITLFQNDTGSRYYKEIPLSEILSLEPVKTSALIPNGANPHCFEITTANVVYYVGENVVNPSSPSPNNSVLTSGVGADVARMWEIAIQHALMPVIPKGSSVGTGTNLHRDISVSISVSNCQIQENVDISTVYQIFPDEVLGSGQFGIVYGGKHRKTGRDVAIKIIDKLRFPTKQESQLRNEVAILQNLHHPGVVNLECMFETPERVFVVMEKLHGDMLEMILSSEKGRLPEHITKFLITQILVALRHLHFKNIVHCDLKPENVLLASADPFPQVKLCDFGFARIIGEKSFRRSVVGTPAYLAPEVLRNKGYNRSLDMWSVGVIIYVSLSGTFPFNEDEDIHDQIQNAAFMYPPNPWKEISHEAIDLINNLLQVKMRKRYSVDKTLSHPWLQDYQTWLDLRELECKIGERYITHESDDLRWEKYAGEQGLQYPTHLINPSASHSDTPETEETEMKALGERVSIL
Text: (§1) The assay to measure protein kinase D1 (PKD1) activity is a time-resolved fluorescence resonance transfer (TR-FRET) assay using PerkinElmer's LANCE™ technology. In this case, a biotinylated syntide-2 peptide is used as the substrate in this reaction. Phosphorylation of the syntide-2 substrate is detected by a specific antibody that recognizes the phosphorylated peptide. A second fluorophore, APC, is conjugated to streptavidin that binds the biotinylated syntide-2 peptide. […] Therefore, when the europium labeled secondary antibody binds on the phosphorylated peptide, it is brought into close contact with the APC and excites this fluorophore.
(§2) This assay is performed with full length wild-type enzyme that is expressed and purified from Sf9 insect cells. The reaction buffer consists of 35 mM Tris-HCl pH7.5, 5 mM MgCl2, 0.02% Tween-20, 20 μM ATP, 1 mM DTT and 0.2 μg/mL PKD1 enzyme. The enzyme reaction is initiated by the addition of 2 μM syntide-2 peptide substrate and the reaction carried out for 50 minutes at room temperature. The reaction is stopped by a stop/detection Buffer consisting of 50 mM EDTA, 0.18 mg/mL rabbit polyclonal anti-phospho Syntide-2 antibody, 0.5 nM europium labeled anti-rabbit IgG and 10 nM streptavidin conjugated APC. […] IC50 values are calculated using an Activity Base (IDBS) software program.

[2] = biological target: T2, protein kinase D2 (PKD2) (Homo sapiens, UniProt Q9BZL6); experiment: PKD2 TR-FRET (LANCE) kinase assay; type: biochemical; conditions: full length wild-type enzyme, 20 μM ATP, syntide-2 substrate; read-out: Inhibitory Activity PKD2
T2 construct: This assay is performed with full length wild-type enzyme purchase from Invitrogen; purchased Invitrogen
T2 sequence (Q9BZL6 1-878): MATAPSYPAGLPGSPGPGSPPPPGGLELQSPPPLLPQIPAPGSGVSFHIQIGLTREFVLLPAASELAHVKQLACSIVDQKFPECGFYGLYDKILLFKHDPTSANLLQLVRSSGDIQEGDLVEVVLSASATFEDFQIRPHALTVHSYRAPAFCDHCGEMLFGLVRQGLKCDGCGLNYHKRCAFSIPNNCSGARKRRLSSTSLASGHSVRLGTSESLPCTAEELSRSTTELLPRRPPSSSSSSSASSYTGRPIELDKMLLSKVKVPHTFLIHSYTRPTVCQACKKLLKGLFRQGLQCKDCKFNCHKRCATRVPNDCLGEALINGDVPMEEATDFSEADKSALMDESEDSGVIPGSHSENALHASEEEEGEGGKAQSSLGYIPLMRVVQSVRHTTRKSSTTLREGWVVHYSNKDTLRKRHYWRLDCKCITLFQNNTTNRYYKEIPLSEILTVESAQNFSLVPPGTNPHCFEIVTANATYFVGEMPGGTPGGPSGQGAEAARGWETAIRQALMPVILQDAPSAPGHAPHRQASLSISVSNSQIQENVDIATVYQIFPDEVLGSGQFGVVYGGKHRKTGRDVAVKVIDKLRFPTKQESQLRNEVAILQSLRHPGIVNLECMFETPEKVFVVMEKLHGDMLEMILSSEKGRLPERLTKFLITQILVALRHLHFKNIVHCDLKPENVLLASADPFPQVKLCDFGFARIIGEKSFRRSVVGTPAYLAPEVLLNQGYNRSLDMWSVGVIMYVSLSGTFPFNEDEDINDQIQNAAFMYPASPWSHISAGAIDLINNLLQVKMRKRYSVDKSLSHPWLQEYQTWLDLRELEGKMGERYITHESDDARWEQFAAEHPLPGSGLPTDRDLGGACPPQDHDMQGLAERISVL
Text: as §1, with “D2 (PKD2)” for “D1 (PKD1)”
as §2, with “purchase” for “that is expressed and purified”, “Invitrogen.” for “Sf9 insect cells.”, “PKD2” for “PKD1”, “APC. After a one hour incubation with the stop/detection buffer, the reaction is read on an Envision 2100 Reader using a LANCE™ Eu/APC dual protocol.” for “APC.”

SMILES | IC50 [1] | IC50 [2]
NC(=O)c1cc(-c2ccnc(NCc3ccccc3Cl)c2)nc(N2CCNCC2)c1 [2′-(2-Chlorobenzylamino-6-piperazin-1-yl-[2,4′]bipyridinyl-4-carboxylic acid amide] | 25 nM | 368 nM
NC(=O)c1cc(-c2ccnc(NC3CCCCC3)c2)nc(N2CCN3CCC[C@@H]3C2)c1 [2′-Cyclohexylamino-6-(R)-hexahydro-pyrrolo[1,2-a]pyrazin-2-yl-[2,4′]bipyridinyl-4-carboxylic acid amide] | 35 nM | 297 nM
N#CCNC(=O)c1ccc(-c2ccnc(NC3CCCCC3)c2)nc1N1CCNCC1 [2′-Cyclohexylamino-6-piperazin-1-yl-[2,4′]bipyridinyl-5-carbonxylic acid cyanomethyl-amide] | 60 nM | 281 nM
COC(=O)c1ccc(-c2ccnc(NC3CCCCC3)c2)nc1N1CCNCC1 [2′-Cyclohexylamino-6-piperazin-1-yl-[2,4′]bipyridinyl-5-carboxylic acid methyl ester] | 83 nM | 500 nM
NC(=O)c1cc(-c2ccnc(NCCc3ccc(O)cc3)c2)nc(N2CCNCC2)c1 [2′-[2-(4-Hydroxyphenyl)ethylamino]-6-piperazin-1-yl-[2,4′]bipyridinyl-4-carboxylic acid amide] | 2 nM | 402 nM
O=C1NCc2c1cc(-c1ccnc(NC3CCCCC3)c1)nc2N1CCn2cnnc2C1 [6-(2-Cyclohexylamino-pyridin-4yl)-4-(5,6-dihydro-8H-[1,2,4]triazolo[4,3-a]pyrazin-7-yl)-2,3-dihydro-pyrrolo[3,4-c]pyridin-1-one] | 56 nM | 466 nM
c1cc(-c2cc(-c3nnco3)cc(N3CCNCC3)n2)cc(NC2CCCCC2)n1 [Cyclohexyl-(4-[1,3,4]oxadiazol-2-yl-6-piperazin-1-yl-[2,4′]bipyridinyl-2′-yl)-amine] | 12 nM | 214 nM
CS(=O)(=O)c1cc(-c2ccnc(NC3CCCCC3)c2)nc(N2CCNCC2)c1 [Cyclohexyl-(4-methanesulfonyl-6-piperazin-1-yl-[2,4′]bipyridinyl-2′-yl)-amine] | 63 nM | 735 nM
O=[N+]([O-])c1cc(-c2ccnc(NC3CCCCC3)c2)nc(N2CCNCC2)c1 [Cyclohexyl-(4-nitro-6-piperazin-1-yl-[2,4′]bipyridinyl-2′-yl)-amine] | 4 nM | 62 nM
FC(F)(F)c1cc(-c2ccnc(NC3CCCCC3)c2)nc(N2CCNCC2)c1 [Cyclohexyl-(6-piperazin-1-yl-4-trifluoromethyl-[2,4′]bipyridinyl-2′-yl)amine] | 20 nM | 101 nM
Nc1cc(-c2ccnc(NC3CCCCC3)c2)nc(N2CCNCC2)c1 [N*2′*-Cyclohexyl-6-piperazin-1-yl-[2,4′]bipyridinyl-4,2′-diamine] | 10 nM | 361 nM
Fc1ccc(Nc2cc(-c3ccnc(NC4CCCCC4)c3)nc(N3CCNCC3)c2)cc1 [N*2′*-Cyclohexyl-N*4*-(4-fluoro-phenyl)-6-piperazin-1-yl-[2,4′]bipyridinyl-4,2′-diamine] | 182 nM | 1160 nM
